Data reported in publication PMC7970798 (Computational and Structural Biotechnology Journal, 2021).
No end group written: not given here.

Biological target: PALS1 F318W (Homo sapiens, UniProt Q8N3R9, F318W)
Assay: biochemical
Format: binding

Chain of PALS1 F318W (Q8N3R9 256-336 F318W limits assumed): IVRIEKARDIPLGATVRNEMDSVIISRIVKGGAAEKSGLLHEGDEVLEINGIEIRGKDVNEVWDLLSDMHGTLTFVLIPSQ

## VKNLNSSRVPDLLV [SARS-CoV-2, VKNLNSSRVPDLLV]
  Kd: 29 ± 4 µM
